Here are results for 6 molecules from patent US4254109A, “1H-Benz[de]isoquinoline-2(3H)-acetic acid derivatives” (Ayerst, McKenna & Harrison Inc., priority 1979, dated 1981).

Experiment [1] concerns the target T1, aldose reductase (Bos taurus, UniProt P16116).
T1 construct: preparation of the enzyme from bovine lens; from tissue; host or cells: bovine lens
The experiment in a line: in vitro aldose reductase inhibition (modified Hayman and Kinoshita procedure; enzyme from bovine lens). Type of experiment: biochemical. Conditions: read-out: Percent Inhibition at Different Molar Concentrations (in vitro); for inhibition at 10 µM: 10^-5 molar; for inhibition at 1 µM: 10^-6 molar; for inhibition at 0.1 µM: 10^-7 molar. How it is done:
In the present case the procedure of Hayman and Kinoshita is modified in that the final chromatography step is omitted in the preparation of the enzyme from bovine lens.
The following results were obtained when the compounds of this invention were evaluated in the above in vitro test (the results for 1,3-dioxo-1H-benz[de]isoquinoline-2(3H)-acetic acid, see U.S. Pat. No. 3,821,383 cited hereinbefore, also is included for comparative purposes): […]

The test system of another experiment is insulin secretion. Conditions: cited from earlier work.
The next experiment concerns glucagon. The note with it: cited from earlier work.
Experiment [2] deals with aldose reductase. Conditions: cited from earlier work.

With `O=C(O)CN1C(=O)c2cccc3c(Cl)ccc(c23)C1=O` [Example 2, 6-Chloro-1,3-dioxo-1H-benz[de]isoquinoline-2(3H)-acetic acid], at aldose reductase [1], the inhibition at 10 µM is 86%, the inhibition at 1 µM came out at 42% and the inhibition at 0.1 µM is 9%.

Regarding `O=C(O)CN1C(=O)c2cccc3c(Sc4ccccc4C(=O)O)ccc(c23)C1=O` [Example 4, 1,3-Dioxo-6-[(2-carboxyphenyl)thio]-1H-benz[de]isoquinoline-2(3H)-acetic acid], at aldose reductase [1], the inhibition at 10 µM came to 91%, the inhibition at 1 µM was 61% and the inhibition at 0.1 µM was 17%.

Take `O=C(O)CN1C(=O)c2cccc3cccc(c23)C1=O` [1,3-Dioxo-1H-benz[de]isoquinoline-2(3H)-acetic acid, reference compound]: in the experiment on insulin secretion, the insulin secretion entry was “stimulates insulin secretion”. Moreover, the “secretion of excessive amounts of glucagon” value with glucagon is listed as “prevents or decreases the secretion of excessive amounts of glucagon”. Also, on aldose reductase [1], the inhibition at 10 µM was determined as 74%, the inhibition at 1 µM amounted to 32% and the inhibition at 0.1 µM came out at 5%. The “inhibitor of aldose reductase” value in the experiment with aldose reductase [2] is reported as “effective inhibitor of aldose reductase”.

Take `O=C(O)CN1C(=O)c2cccc3c(Sc4ccccc4)ccc(c23)C1=O` [Example 3, 1,3-Dioxo-6-(phenylthio)-1H-benz[de]isoquinoline-2(3H)-acetic acid]: at aldose reductase [1], the inhibition at 10 µM stood at 92%, the inhibition at 1 µM was 71% and the inhibition at 0.1 µM was 22%.

Take `O=C(O)CN1C(=O)c2cccc3c(C(=O)c4ccccc4)ccc(c23)C1=O` [Example 1, 6-Benzoyl-1,3-dioxo-1H-benz[de]isoquinoline-2(3H)-acetic acid]: on aldose reductase [1], the inhibition at 10 µM was 85%, the inhibition at 1 µM was found to be 65% and the inhibition at 0.1 µM amounted to 22%.

Consider `CCCCCCCCCCSc1ccc2c3c(cccc13)C(=O)N(CC(=O)O)C2=O` [Example 5, 1,3-Dioxo-6-(decylthio)-1H-benz[de]isoquinoline-2(3H)-acetic acid], for which, on aldose reductase [1], the inhibition at 10 µM was 60%, the inhibition at 1 µM was determined as 33% and the inhibition at 0.1 µM stood at 26%.
